Assay results reported in patent publication EP4782437A1, “HETEROARYL COMPOUND, AND PREPARATION METHOD THEREFOR AND USE THEREOF IN MEDICINE” (Jiangsu Hengrui Pharmaceuticals Co., Ltd., priority 2023, dated 2025).

Molecular target: T1, BTK recombinant human protein (Homo sapiens, UniProt Q06187)
T1 construct: purchased Thermo PV3363
Experiment: Inhibitory activity against BTK (HTRF KinEASE-TK kit)
Type: biochemical
Details: 2 nM BTK, 10 µM ATP, 0.5 hours preincubation at 25°C; read-out: IC50 values of inhibitory activity against BTK
Protocol: Test example 1: Inhibitory activity of compounds of the present disclosure against BTK • I. Experimental materials and instruments • 1. BTK recombinant human protein (Thermo, PV3363) • 2. HTRF KinEASE-TK kit (Cisbio, 62TK0PEC) • 3. 1 M MgCl2 (Thermo, AM9530G) • 4. 1 M MnCl2 (Sigma, M1787-100ML) • 5. Adenosine 5'-triphosphate (ATP) (New England Biolabs, P0756L) • 6. DTT 2M (Sangon Biotech, B645939) • 7. Ultrapure water (Invitrogen, 10977-015) • 8. OptiPlate-384, white opaque 384-well microplate (PerkinElmer, 6007290) • 9. 96-well round-bottom plate (Corning, 3788) • 10. Biochemical incubator (Shanghai Boxun Medical & Biological Instruments Co., Ltd., BSP-100) • 11. 15-mL centrifuge tube (Corning) • 12. Benchtop high-speed centrifuge (Changsha Yingtai Instrument Co., Ltd., TD4N) • 13. Multifunctional microplate reader (PerkinElmer, EnVision) • 14. Bravo liquid handling platform (Agilent Technologies, SGC120TH34702) • II. Experimental procedure
The HTRF KinEASE-TK kit is designed to detect changes in BTK enzyme activity based on two technologies, i.e., fluorescence resonance energy transfer and time-resolved fluorescence. The kit is operated in two stages: 1) enzyme reaction stage: the enzyme reaction is initiated by adding ATP, where the enzyme phosphorylates the substrate, and the compounds are then added to competitively bind to BTK against ATP, thereby inhibiting substrate phosphorylation; and 2) detection stage: after the enzyme reaction is complete, a detection reagent is added to terminate the reaction. Different groups on the phosphorylated substrate bind to the energy donor and energy acceptor, respectively, bringing the two into close proximity. During the instrumental readout, the energy donor is excited by an external light source, which enables resonance energy transfer to the proximal energy acceptor. The acceptor, in turn, becomes excited and emits light at a specific wavelength. Thus, changes in enzyme activity can be detected by measuring the signal values, and the inhibition rate of the compounds against the target enzyme can be calculated, thereby evaluating the inhibitory effect of the compounds on BTK enzyme activity.
Preparation of enzyme reaction buffer: 5× Kinase Buffer was diluted 5-fold with ultrapure water, and then the stock solutions of MgCl2, MnCl2 and DTT were added. The final composition of the buffer was as follows: 1× Kinase Buffer, 10 mM MgCl2, 1 mM MnCl2, and 1 mM DTT.
(§1) Preparation of 5 × BTK working solution: The BTK (5.17 µM) stock solution was removed from -20°C storage. Given that the BTK concentration in the enzyme reaction system was 2 nM and the concentration of the 5× working solution was 10 nM, the BTK stock solution was diluted 517-fold with the enzyme reaction buffer according to the volume required for the experiment. The diluted solution was then added to the 384-well plate at 2 µL per well. The plate was placed in a plate spinner and centrifuged at 2000 rpm for 1 minute to bring the liquid to the bottom of the wells.
as §1, with “[…]. Given” for “Preparation of 5 × BTK working solution: The BTK (5.17 µM) stock solution was removed from -20°C storage. Given”, “the SEB” for “the BTK”, “was 50” for “was 2”, “was 250” for “was 10”, “diluted 10-fold” for “diluted 517-fold”
The test compounds dissolved in 100% DMSO at 20 mM were diluted with 100% DMSO to a concentration of 200 µM, which represents the 200× concentration of the highest compound concentration point in the reaction system. The compounds at this concentration were then subjected to 10-point 3-fold serial dilution with 100% DMSO. The positive control wells and negative control wells were set with 100% DMSO. […]

T1 sequence (Q06187 whole entry): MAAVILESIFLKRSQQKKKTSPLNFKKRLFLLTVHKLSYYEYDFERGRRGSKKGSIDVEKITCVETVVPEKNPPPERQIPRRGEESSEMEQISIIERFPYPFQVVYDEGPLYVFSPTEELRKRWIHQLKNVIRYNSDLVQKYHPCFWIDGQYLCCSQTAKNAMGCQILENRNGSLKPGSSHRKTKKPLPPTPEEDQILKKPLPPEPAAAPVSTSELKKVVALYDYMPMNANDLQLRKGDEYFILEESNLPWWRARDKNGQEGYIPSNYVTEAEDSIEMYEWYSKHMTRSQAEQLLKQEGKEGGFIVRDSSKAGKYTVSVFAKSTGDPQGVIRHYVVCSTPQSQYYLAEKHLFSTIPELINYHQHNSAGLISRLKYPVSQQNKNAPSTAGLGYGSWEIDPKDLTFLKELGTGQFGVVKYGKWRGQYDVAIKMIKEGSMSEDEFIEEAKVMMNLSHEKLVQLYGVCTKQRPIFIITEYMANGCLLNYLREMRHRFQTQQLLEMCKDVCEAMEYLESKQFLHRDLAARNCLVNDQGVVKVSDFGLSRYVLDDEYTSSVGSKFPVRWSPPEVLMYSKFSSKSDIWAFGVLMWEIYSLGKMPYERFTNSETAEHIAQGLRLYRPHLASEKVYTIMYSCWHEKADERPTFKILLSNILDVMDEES

IC50: 8.3 nM
SMILES: C=CC(=O)N(C)CCOc1c(N)ncnc1-c1cc(F)cc(NC(=O)c2cc3c(cc2F)C2(CC2)CO3)c1C [Example 3, N-(3-(6-amino-5-(2-(N-methacrylamido)ethoxy)pyrimidin-4-yl)-5-fluoro-2-methylphenyl)-5-fluoro-2H-spiro[benzofuran-3,1'-cyclopropane]-6-carboxamide]
